From patent US20020035061A1, “COMPOSITIONS AND METHODS FOR TREATING INFECTIONS USING CATIONIC PEPTIDES ALONE OR IN COMBINATION WITH ANTIBIOTICS” (priority 1996, published 2002)
Like-named read-outs stand apart in the source and are kept apart here.

How the values were obtained:
Type in all cases: cell-based
S. maltophilia = test system: S. maltophilia
S. epidermidis = test system: S. epidermidis
E. coli = test system: E. coli
S. marcescens = test system: S. marcescens
K. pneumoniae = test system: K. pneumoniae
E. faecalis = test system: E. faecalis
P. aeruginosa = test system: P. aeruginosa
S. aureus = test system: S. aureus
A. calcoaceticus = test system: A. calcoaceticus
E. cloacae = test system: E. cloacae

| Sequence | MIC (S. maltophilia; S. maltophilia SMA002) [µg/mL] | MIC (S. epidermidis; S. epidermidis SE010) [µg/mL] | MIC (E. coli; E. coli ECO005) [µg/mL] | MIC (S. marcescens; S. marcescens SMS003) [µg/mL] | MIC (K. pneumoniae; K. pneumoniae KP001) [µg/mL] | MIC (E. faecalis; E. faecalis EFS001) [µg/mL] | MIC (E. faecalis; E. faecalis EFS008) [µg/mL] | MIC (P. aeruginosa; P. aeruginosa PA004) [µg/mL] | MIC (S. aureus; S. aureus SA014) [µg/mL] | MIC (S. aureus; S. aureus SA093) [µg/mL] | MIC (A. calcoaceticus; A. calcoaceticus AC002) [µg/mL] | MIC (E. cloacae; E. cloacae ECL007) [µg/mL] | also measured |
| --- | --- | --- | --- | --- | --- | --- | --- | --- | --- | --- | --- | --- | --- |
| ALRWPWWPWRRK [MBI 11H01CN] | 32 | 2 | 8 | >128 | 8 | 2 | 8 | 128 | 2 | 1 | 2 | >128 | – |
| CLRWPWWPWRRK [MBI 11D19CN] | 64 | 8 | 32 | >128 | 32 | 4 | 64 | 128 | 4 | 2 | 8 | >128 | – |
| IARWPWWPWRRK [MBI 11H02CN] | 64 | 4 | 16 | >128 | 32 | 2 | 16 | >128 | 2 | 1 | 4 | >128 | – |
| ILAWPWWPWRRK [MBI 11H03CN] | 64 | 4 | 16 | >128 | 16 | 2 | 8 | >128 | 2 | 2 | 8 | >128 | – |
| ILKKNPNNPARRK [MBI 11CNX1] | >64 | – | 64 | >64 | >64 | – | – | – | – | – | – | >64 | MIC (E. faecalis; E. faecalis EFS004): 16 µg/mL; MIC (P. aeruginosa; P. aeruginosa PA024): >64 µg/mL; MIC (S. aureus; S. aureus SA006): 2 µg/mL; MIC (A. calcoaceticus; A. calcoaceticus AC001): >64 µg/mL |
| ILKKNPNNPNRK [MBI 11B4ACN] | – | – | – | – | – | – | – | – | – | – | – | – | MIC (S. maltophilia; S. maltophilia strain SMA002): 64 µg/mL; MIC (S. epidermidis; S. epidermidis strain SE010): 8 µg/mL; MIC (E. coli; E. coli strain ECO005): 32 µg/mL; MIC (S. marcescens; S. marcescens strain SMS003): >128 µg/mL; MIC (K. pneumoniae; K. pneumoniae strain KP001): 32 µg/mL; MIC (E. faecalis; E. faecalis strain EFS008): 64 µg/mL; MIC (P. aeruginosa; P. aeruginosa strain PA004): >128 µg/mL; MIC (S. aureus; S. aureus strain SA008): 1 µg/mL; MIC (A. calcoaceticus; A. calcoaceticus strain AC002): 4 µg/mL; MIC (E. cloacae; E. cloacae strain ECL007): >128 µg/mL |
| ILKKNPNNPNRRK [MBI 11CNY1] | >64 | 128 | >64 | >64 | >64 | – | – | >64 | – | – | – | >64 | MIC (E. faecalis; E. faecalis EFS004): >64 µg/mL; MIC (S. aureus; S. aureus SA006): 16 µg/mL; MIC (A. calcoaceticus; A. calcoaceticus AC001): >64 µg/mL |
